# Laboratory results published in PMC12333940, “A prometabolite strategy inhibits cardiometabolic disease in an ApoE^–/– murine model of atherosclerosis” (JCI Insight, 2025).
# Values joined by “and” are separate entries in the source; they are usually repeats but may differ in a detail not shown here. Equal entries are not always repeated.
# Legend:
# [1] = LC-MS/MS of free butyrate in solution of fresh and aged SerBut; conditions: freshly dissolved
# Method: To investigate stability, we repeated the experiment with SerBut in FBS-supplemented complete media stored for 1 month at 37°C (Figure 1B).
# (B) LC-MS/MS analysis of free butyrate in solution of aged SerBut (incubated at 37°C in FBS-supplemented media for 1 month) and freshly dissolved SerBut and NaBut. (C) NF-κB activity of RAW Blue reporter cells upon treatment with the indicated concentrations of SerBut or NaBut for 24 hours followed by stimulation with 200 ng/mL LPS for 6 hours. (D–J) RAW 264.7 cells treated for 24 hours with the indicated concentrations of SerBut or NaBut followed by stimulation with 200 ng/mL LPS for 6 hours. (D–E) Mean fluorescence intensity (MFI) of iNOS^+ or CD80^+ RAW 264.7 cells analyzed by flow cytometry. (F–J) Cytokine concentrations in the cell culture supernatant of RAW 264.7 cells. “x” indicates untreated group. In A, n = 3 per group representing technical replicates. In B, n = 3 freshly prepared samples per 2 distinct experiments pooled for aged SerBut and NaBut groups, while fresh the SerBut group represents a single experiment. One sample in the aged SerBut group and 2 samples in the NaBut group were lost due to filtering malfunctions or LC-MS/MS autosampling malfunctions. In C, n = 6 technical replicates. Data represent mean ± SEM. […] In A, 2-way ANOVA was performed.
# Samples were prepared and derivatized as described previously ([28]). Stock solutions were prepared in water/acetonitrile (ACN) (1:1 v/v): 3-nitrophenylhydrazine (NPH), and 1-ethyl-3-(3-dimethylaminopropyl)carbodiimide (EDC) (in 1% pyridine). The internal standard, 4-methylvaleric acid, was added. Samples were mixed with NPH and EDC stocks at a 1:1:1 volume ratio. The mixture was heated in a heating block at 60°C for 30 minutes. Samples were filtered through 0.22 μm filters and stored at 4°C before analysis.
# Both derivatized butyrate-NPH and 4-methylvaleric-NPH were detected in negative mode. Column: Thermo Fisher Scientific C18 4.6 × 50 mm, 1.8 μm particle size, at room temperature. Mobile phase A: water with 0.1% v/v formic acid. Mobile phase B: ACN with 0.1% v/v formic acid. Injection volume: 5.0 μL. Flow rate: 0.5 mL/min. […] The MS conditions were optimized using pure butyrate-NPH or 4-methylvaleric-NPH at 1 mM. […] The ratio between MRM of butyrate and 4-methylvaleric acid was used to quantify butyrate concentration.
# [2] = system: RAW 264.7 macrophages; experiment: LEGENDPlex cytokines in supernatant of LPS-stimulated RAW 264.7; format: cell-based; set-up: TNFa (Legendplex) / MCP-1 (Legendplex) / IL-10 (Legendplex) / IL-6 (Legendplex): unit not given here
# Method: RAW 264.7 (ATCC, TIB-71) macrophages were cultured at 37°C and 5% CO2 in DMEM (Gibco) supplemented with 1 mM HEPES, 1 mM sodium pyruvate, 10% FBS, and penicillin/streptomycin. Cells were plated in round-bottom 96-well plates at 100,000 cells per well and incubated with different concentrations of either NaBut or SerBut (0.15–12 mM) for 24 hours. Cells were then rinsed with PBS and then stimulated with 200 ng/mL LPS in media for 6 hours. The cell culture supernatant was collected and analyzed by LEGENDPlex to analyze the concentrations of cytokines (BioLegend). Cell phenotype was analyzed using flow cytometry (Cytek Aurora).
# [3] = system: ApoE^–/– mice on an HFD; experiment: Immunofluorescent staining of the aortic root (CD68, iNOS, DAPI); format: in vivo, mouse; set-up: Immunoflourescence Quantification #Cells/Area / Immunoflourescence Quantification #iNOS+/Area: unit not given beside the values
# Source text: SerBut water was pH adjusted using 10 M NaOH to a final pH of 7.4. […] After 6 weeks, mice were euthanized. […] The liver was harvested and part was homogenized in tissue protein extraction reagent buffer (Invitrogen, 78510) supplemented with protease inhibitor mini tablets (Thermo Fisher Scientific, PIA32955) for Western blotting and qPCR. […] Aortic root sections were brought to room temperature and rehydrated with PBS and permeabilized with 10% dimethyl sulfoxide (DMSO). […] Sections were washed again in PBS with 0.1% Tween 20 and then PBS and mounted with ProLong Gold Antifade Mountant with DAPI (Invitrogen). Slides were imaged with a DMI8 inverted fluorescence microscope (Leica Microsystems) and analyzed with QuPath (v0.5.0).
# [4] = system: ApoE^–/– mice on an HFD; experiment: Blood chemical analysis of plasma; format: in vivo, mouse; set-up: Lipase / ALT / Altherogenic Lipids (Chol-HDL) / HDL-C / LDL-C: unit not given here
# Method: SerBut water was pH adjusted using 10 M NaOH to a final pH of 7.4. […] After 6 weeks, mice were euthanized. […] The liver was harvested and part was homogenized in tissue protein extraction reagent buffer (Invitrogen, 78510) supplemented with protease inhibitor mini tablets (Thermo Fisher Scientific, PIA32955) for Western blotting and qPCR. […] Blood chemical analysis was performed on an Alfa […] Chemistry Analyzer. Reagent kits from Alfa Wasserman were used according to manufacturer's instructions to analyze plasma: lipase (catalog SA1045), HDL-C (catalog SA2038, LDL-C (catalog SA1040), AST (catalog SA1053), ALT (catalog SA1052). A LEGENDPlex was utilized to analyze the concentrations of inflammatory cytokines (BioLegend).
# [5] = aortic root, individual samples
# [6] = Blood Chemistry, 6wk, individual mice, experiments 1 and 2
compound,measurement,setting,value
"CCCC(=O)[O-].[Na+] [NaBut, sodium butyrate, reference compound]",Butyrate Release by LCMS-MS (free butyrate),[1],2.185 and 1.975 and 1.35 and 1.426
same,IL-10 (Legendplex),"[2]; 0.15 mM 24 h, then LPS 6 h",8.317 and 9.29 and 13.129 and 8.37
same,MCP-1 (Legendplex),"[2]; 0.15 mM 24 h, then LPS 6 h",1660.24 and 2264.24 and 1687.05 and 2929.5 and 2357.33 and 2465.59
same,TNFa (Legendplex),"[2]; 0.15 mM 24 h, then LPS 6 h",3467.9 and 2909.16 and 2378.78 and 3607.94 and 2472.11 and 3683.23
same,MCP-1 (Legendplex),"[2]; 0.45 mM 24 h, then LPS 6 h",2112.3 and 1670.81 and 2406.34 and 3206.1 and 2298.22 and 2148.28
same,TNFa (Legendplex),"[2]; 0.45 mM 24 h, then LPS 6 h",3244.2 and 3100.16 and 2160.11 and 2490.85 and 3404.75 and 4226.6
same,IL-6 (Legendplex),"[2]; 1.3 mM 24 h, then LPS 6 h",176.681 and 160.514 and 142.105 and 263.619 and 136.873 and 198.799
same,IL-10 (Legendplex),"[2]; 1.3 mM 24 h, then LPS 6 h",98.389 and 140.989 and 108.157 and 179.138 and 132.561 and 143.069
same,MCP-1 (Legendplex),"[2]; 1.3 mM 24 h, then LPS 6 h",906.304 and 776.372 and 770.115 and 1009 and 667.135 and 799.178
same,TNFa (Legendplex),"[2]; 1.3 mM 24 h, then LPS 6 h",1902.56 and 1870.65 and 1906.93 and 1713.88 and 1376.2 and 1809.49
same,IL-10,[2]; compared with LPS-stimulated controls,significantly increased
same,CD68^+ cells and iNOS^+ cells per unit area atherosclerotic lesion,"[3]; 6 weeks, compared with water- and SerBut-treated groups",increased
same,Immunoflourescence Quantification #CD68,[3]; [5],1074 and 944 and 743 and 1249 and 728 and 1069 and 1053 and 1330 and 954 and 511
same,Immunoflourescence Quantification #Cells,[3]; [5],1302 and 1139 and 1013 and 1531 and 949 and 1262 and 1685 and 1684 and 1364 and 682
same,Immunoflourescence Quantification #Cells/Area,[3]; [5],0.004391 and 0.005279 and 0.00411 and 0.005114 and 0.004088 and 0.003979 and 0.00428 and 0.00408 and 0.005037 and 0.004831
same,Immunoflourescence Quantification #iNOS+,[3]; [5],500 and 473 and 401 and 466 and 354 and 445 and 695 and 625 and 264
same,Immunoflourescence Quantification #iNOS+/Area,[3]; [5],0.001686 and 0.002192 and 0.001627 and 0.001557 and 0.001525 and 0.001403 and 0.001765 and 0.001514 and 0.00187
same,Immunoflourescence Quantification CD68+/Area,[3]; [5],0.003622 and 0.004376 and 0.003015 and 0.004172 and 0.003136 and 0.00337 and 0.002675 and 0.003222 and 0.003523 and 0.003619
same,Immunoflourescence Quantification CD68+iNOS+,[3]; [5],445 and 379 and 322 and 434 and 281 and 393 and 535 and 517 and 202
same,Immunoflourescence Quantification CD68+iNOS+/Area,[3]; [5],0.001501 and 0.001757 and 0.001307 and 0.00145 and 0.001211 and 0.001239 and 0.001359 and 0.001252 and 0.001431
same,lipase in the plasma,[4]; 6 weeks,significant increase
same,total cholesterol or triglycerides in the plasma,[4]; 6 weeks,Neither SerBut nor NaBut influenced
same,LDL-C as a fraction of total cholesterol,"[4]; 6 weeks, 150 mM in drinking water, HFD",significantly reduced
same,Altherogenic Lipids (Chol-HDL),[4]; [6],872 and 974 and 870 and 998 and 868 and 1098 and 1088 and 922 and 790 and 882
same,HDL-C,[4]; [6],44 and 40 and 42 and 36 and 38
same,LDL-C,"[4]; Blood Chemistry, individual mice, experiments 1 and 2",284 and 358 and 282 and 372 and 310 and 334 and 344 and 346 and 348 and 320
same,ALT,"[4]; plasma at 6 weeks, 150 mM in drinking water ad libitum with HFD, individual mice",35.16 and 44.74 and 39.32 and 26.1 and 40.12 and 26.24 and 30.52 and 29.96 and 35.92 and 47.84
same,Lipase,"[4]; plasma at 6 weeks, 150 mM in drinking water with HFD",118 and 92 and 98 and 112 and 94 and 122 and 124 and 106
